# Laboratory results as given in patent US20250320206A1, “STAT6 DEGRADERS” (Gilead Sciences, Inc., priority 2024, published 2025).
# System: Eotaxin-3 release in human whole blood stimulated with IL-4
# Experiment: Human Whole Blood Eotaxin-3 Assay (IL-4 stimulated eotaxin-3 release)
# Type: cell-based
# Details: IL-4 stimulation, 48 h, values given for compounds with >80% Emax, geometric mean
# Experimental: Human Whole Blood Eotaxin-3 Assay
# This was a human whole blood assay using recombinant human Interleukin 4 to stimulate the blood and measuring the ability of the test compounds to inhibit eotaxin-3 release. The biological activities of the test compounds have been tested in human whole blood stimulated with IL-4 measuring Eotaxin-3 release. The test compounds were added to 384 well clear flat-bottom plate in a 4-fold serial dilution in triplicates using a liquid handler. Human whole blood stabilized in lithium-heparin tubes was added in a volume of 65 μL per well, resulting in a final DMSO concentration of 0.5%. The plate is incubated for 2 h at 37° C. under 5% CO2/95% air. Subsequently, 5 μL of recombinant human IL-4 (R&D Systems, cat #204-ILB) was added to the wells to a final concentration of […]. The plate was incubated for 48 h at 37° C. under 5% CO2/95% air. The plate was spun down for 10 minutes at 500×g and 20 μL supernatant was harvested and transferred to a 384 well v-bottom plate using a liquid handler and stored at −20° C. until further analysis. 10 μL supernatant was used to measure the level of Eotaxin-3 (CCL26) using Human Eotaxin-3 MSD kit from Mesocsale (Cat #K251UEK-4). The assay was performed according to the manufacture instructions.
# The data from the human whole blood eotaxin-3 assay is shown in FIG. 2 for Examples 3u208, 3u246, 3u118, 3u119, 3u120, and 3u74 (where the effect in % is plotted against the test concentration in M on a log scale).
row,Structure (SMILES),EC50 [nM]
1,"CNc1cc(=O)n(-c2ccnc3c2cc([C@H](C)N2CC=C(c4c(C)cc(C(=O)N5CCC(CN6CCN(Cc7ccc8c(c7)C7(CC7)C(=O)N8C7CCC(=O)NC7=O)C[C@@H]6C)CC5)cc4F)CC2)n3C)cc1OC (stereo partly drawn) [Example 3u117, 3-(5′-(((S)-4-((1-(3-fluoro-4-(1-((S)-1-(4-(5-methoxy-4-(methylamino)-2-oxopyridin-1 (2H)-yl)-1-methyl-1H-pyrrolo[2,3-b]pyridin-2-yl)ethyl)-1,2,3,6-tetrahydropyridin-4-yl)-5-methylbenzoyl)piperidin-4-yl)methyl)-3-methylpiperazin-1-yl)methyl)-2′-oxospiro[cyclopropane-1,3′-indolin]-1′-yl)piperidine-2,6-dione]",1210
2,"C[C@H]1CN(Cc2ccc3c(c2)n(C)c(=O)n3C2CCC(=O)NC2=O)CCN1CC1CCN(C(=O)c2cc(F)c(C3=CCN([C@@H](C)c4cc5c(-n6cc(F)c7c(c6=O)CCN7)ccnc5n4C)CC3)c(F)c2)CC1 (stereo partly drawn) [Example 3u8, 3-(5-(((S)-4-((1-(3,5-difluoro-4-(1-((S)-1-(4-(7-fluoro-4-oxo-1,2,3,4-tetrahydro-5H-pyrrolo[3,2-c]pyridin-5-yl)-1-methyl-1H-pyrrolo[2,3-b]pyridin-2-yl)ethyl)-1,2,3,6-tetrahydropyridin-4-yl)benzoyl)piperidin-4-yl)methyl)-3-methylpiperazin-1-yl)methyl)-3-methyl-2-oxo-2,3-dihydro-1H-benzo[d]imidazol-1-yl)piperidine-2,6-dione]",5.9
3,"CNc1ccn(-c2ccnc3c2cc([C@H](C)N2CC=C(c4c(C)cc(C(=O)N5CCC(CN6CCN(c7cc8c(cc7F)n(C7CCC(=O)NC7=O)c(=O)n8C)CC6)CC5)cc4F)CC2)n3C)c(=O)c1F (stereo partly drawn) [Example 3u273, 3-(6-fluoro-5-(4-((1-(3-fluoro-4-(1-((S)-1-(4-(3-fluoro-4-(methylamino)-2-oxopyridin-1 (2H)-yl)-1-methyl-1H-pyrrolo[2,3-b]pyridin-2-yl)ethyl)-1,2,3,6-tetrahydropyridin-4-yl)-5-methylbenzoyl)piperidin-4-yl)methyl)piperazin-1-yl)-3-methyl-2-oxo-2,3-dihydro-1H-benzo[d]imidazol-1-yl)piperidine-2,6-dione]",31.8
4,"CNc1cc(=O)n(-c2ccnc3c2cc([C@H](C)N2CC=C(c4c(C)cc(C(=O)N5CCC(CN6CCN(c7cc8c(cc7F)N(C7CCC(=O)NC7=O)C(=O)C8(C)C)CC6)CC5)cc4F)CC2)n3C)cc1F (stereo partly drawn) [Example 3u306, 3-(6-fluoro-5-(4-((1-(3-fluoro-4-(1-((S)-1-(4-(5-fluoro-4-(methylamino)-2-oxopyridin-1 (2H)-yl)-1-methyl-1H-pyrrolo[2,3-b]pyridin-2-yl)ethyl)-1,2,3,6-tetrahydropyridin-4-yl)-5-methylbenzoyl)piperidin-4-yl)methyl)piperazin-1-yl)-3,3-dimethyl-2-oxoindolin-1-yl)piperidine-2,6-dione]",194
5,"CNc1ccn(-c2ccnc3c2cc(CN2CCC(c4c(F)cc(C(=O)N5CCC(CN6CCN(c7cc8c(cc7F)n(C7CCC(=O)NC7=O)c(=O)n8C)CC6)CC5)cc4F)CC2)n3C)c(=O)n1 (stereo not shown) [Example 3h43, 3-(5-(4-((1-(3,5-difluoro-4-(1-((1-methyl-4-(4-(methylamino)-2-oxopyrimidin-1 (2H)-yl)-1H-pyrrolo[2,3-b]pyridin-2-yl)methyl)piperidin-4-yl)benzoyl)piperidin-4-yl)methyl)piperazin-1-yl)-6-fluoro-3-methyl-2-oxo-2,3-dihydro-1H-benzo[d]imidazol-1-yl)piperidine-2,6-dione]",7.4
6,"CNc1ccn(-c2ccnc3c2cc([C@H](C)N2CC=C(c4c(C)cc(C(=O)N5CCC(CN6CCN(Cc7ccc8c(c7)n(C7CC7)c(=O)n8C7CCC(=O)NC7=O)C[C@@H]6C)CC5)cc4F)CC2)n3C)c(=O)c1OC (stereo partly drawn) [Example 3u135, 3-(3-cyclopropyl-5-(((S)-4-((1-(3-fluoro-4-(1-((S)-1-(4-(3-methoxy-4-(methylamino)-2-oxopyridin-1 (2H)-yl)-1-methyl-1H-pyrrolo[2,3-b]pyridin-2-yl)ethyl)-1,2,3,6-tetrahydropyridin-4-yl)-5-methylbenzoyl)piperidin-4-yl)methyl)-3-methylpiperazin-1-yl)methyl)-2-oxo-2,3-dihydro-1H-benzo[d]imidazol-1-yl)piperidine-2,6-dione]",185
7,"CNc1ccn(-c2ccnc3c2cc([C@H](C)N2CC=C(c4c(C)cc(C(=O)N5CCC(CN6CCN(Cc7ccc8c(c7)C7(CCOCC7)C(=O)N8C7CCC(=O)NC7=O)CC6)CC5)cc4F)CC2)n3C)c(=O)c1 (stereo partly drawn) [Example 3u257, 3-(5-((4-((1-(3-fluoro-5-methyl-4-(1-((S)-1-(1-methyl-4-(4-(methylamino)-2-oxopyridin-1 (2H)-yl)-1H-pyrrolo[2,3-b]pyridin-2-yl)ethyl)-1,2,3,6-tetrahydropyridin-4-yl)benzoyl)-piperidin-4-yl)methyl)piperazin-1-yl)methyl)-2-oxo-2′,3′,5′,6′-tetrahydrospiro[indoline-3,4′-pyran]-1-yl)piperidine-2,6-dione]",24.2
8,"CNc1cc(=O)n(-c2ccnc3c2cc([C@H](C)N2CC=C(c4c(C)cc(C(=O)N5CCC(CN6CCN(c7cccc8c7n(C)c(=O)n8C7CCC(=O)NC7=O)CC6)CC5)cc4F)CC2)n3C)cc1F (stereo partly drawn) [Example 3u271, 3-(4-(4-((1-(3-fluoro-4-(1-((S)-1-(4-(5-fluoro-4-(methylamino)-2-oxopyridin-1 (2H)-yl)-1-methyl-1H-pyrrolo[2,3-b]pyridin-2-yl)ethyl)-1,2,3,6-tetrahydropyridin-4-yl)-5-methylbenzoyl)-piperidin-4-yl)methyl)piperazin-1-yl)-3-methyl-2-oxo-2,3-dihydro-1H-benzo[d]imidazol-1-yl)-piperidine-2,6-dione]",3.3
9,"CNc1ccn(-c2ccnc3c2cc([C@H](C)N2CC=C(c4c(C)cc(C(=O)N5CCn6c(nnc6C6CCN(c7ccc8c(c7)n(C)c(=O)n8C7CCC(=O)NC7=O)CC6)C5)cc4F)CC2)n3C)c(=O)c1 (stereo partly drawn) [Example 3u260, 3-(5-(4-(7-(3-fluoro-5-methyl-4-(1-((S)-1-(1-methyl-4-(4-(methylamino)-2-oxopyridin-1 (2H)-yl)-1H-pyrrolo[2,3-b]pyridin-2-yl)ethyl)-1,2,3,6-tetrahydropyridin-4-yl)benzoyl)-5,6,7,8-tetrahydro-[1,2,4]triazolo[4,3-a]pyrazin-3-yl)piperidin-1-yl)-3-methyl-2-oxo-2,3-dihydro-1H-benzo[d]imidazol-1-yl)piperidine-2,6-dione]",11.2
10,"CNc1cc(=O)n(-c2ccnc3c2cc([C@H](C)N2CC=C(c4c(C)cc(C(=O)N5CCC(F)(CN6CCN(c7ccc8c(c7)C7(CC7)C(=O)N8C7CCC(=O)NC7=O)CC6)CC5)cc4F)CC2)n3C)cc1F (stereo partly drawn) [Example 3u136, 3-(5′-(4-((4-fluoro-1-(3-fluoro-4-(1-((S)-1-(4-(5-fluoro-4-(methylamino)-2-oxopyridin-1 (2H)-yl)-1-methyl-1H-pyrrolo[2,3-b]pyridin-2-yl)ethyl)-1,2,3,6-tetrahydropyridin-4-yl)-5-methyl-benzoyl)piperidin-4-yl)methyl)piperazin-1-yl)-2′-oxospiro[cyclopropane-1,3′-indolin]-1′-yl)piperidine-2,6-dione]",16.4
11,"CNc1nc(=O)n(-c2ccnc3c2cc([C@H](C)N2CC=C(c4c(C)cc(C(=O)N5CCC(CN6CCN(c7cc8c(cc7F)n(C7CCC(=O)NC7=O)c(=O)n8C)CC6)CC5)cc4F)CC2)n3C)cc1F (stereo partly drawn) [Example 3u268, 3-(6-fluoro-5-(4-((1-(3-fluoro-4-(1-((S)-1-(4-(5-fluoro-4-(methylamino)-2-oxopyrimidin-1 (2H)-yl)-1-methyl-1H-pyrrolo[2,3-b]pyridin-2-yl)ethyl)-1,2,3,6-tetrahydropyridin-4-yl)-5-methylbenzoyl)piperidin-4-yl)methyl)piperazin-1-yl)-3-methyl-2-oxo-2,3-dihydro-1H-benzo[d]-imidazol-1-yl)piperidine-2,6-dione]",5.6
12,"CNc1cc(=O)n(-c2ccnc3c2cc([C@H](C)N2CC=C(c4c(C)cc(C(=O)N5CCC(O)(CC6CCN(c7ccc8c(c7)C7(CC7)C(=O)N8C7CCC(=O)NC7=O)CC6)CC5)cc4F)CC2)n3C)cc1F (stereo partly drawn) [Example 3u283, 3-(5′-(4-((1-(3-fluoro-4-(1-((S)-1-(4-(5-fluoro-4-(methylamino)-2-oxopyridin-1 (2H)-yl)-1-methyl-1H-pyrrolo[2,3-b]pyridin-2-yl)ethyl)-1,2,3,6-tetrahydropyridin-4-yl)-5-methylbenzoyl)-4-hydroxypiperidin-4-yl)methyl)piperidin-1-yl)-2′-oxospiro[cyclopropane-1,3′-indolin]-1′-yl)piperidine-2,6-dione]",126
13,"Cc1cc(C(=O)N2CCC(CN3CCN(c4cc5c(cc4F)n(C4CCC(=O)NC4=O)c(=O)n5C)CC3)CC2)cc(F)c1C1=CCN([C@@H](C)c2cc3c(-n4cc(F)c5c(c4=O)CCN5)ccnc3n2C)CC1 (stereo partly drawn) [Example 3u253, 3-(6-fluoro-5-(4-((1-(3-fluoro-4-(1-((S)-1-(4-(7-fluoro-4-oxo-1,2,3,4-tetrahydro-5H-pyrrolo[3,2-c]pyridin-5-yl)-1-methyl-1H-pyrrolo[2,3-b]pyridin-2-yl)ethyl)-1,2,3,6-tetrahydropyridin-4-yl)-5-methylbenzoyl)piperidin-4-yl)methyl)piperazin-1-yl)-3-methyl-2-oxo-2,3-dihydro-1H-benzo[d]imidazol-1-yl)piperidine-2,6-dione]",8.1
